Source: US10160747B2, “Compounds and methods for kinase modulation, and indications therefor” (Plexxikon Inc., priority 2016, dated 2018)

How the values were obtained:
[1] = tested on: MOLM-14 D835Y (endogenous FLT3 ITD and transfected FLT3 D835Y); assay: MOLM-14 D835Y cell proliferation assay (CellTiter-Glo); assay type: cell-based; details: Homo sapiens, MOLM-14, 72 h; 3 d growth, GMean
Text: (§1) The FLT3 inhibitors may be assessed using the MOLM-14, Acute Myeloid Leukemia cell line that endogenously expresses FLT3 ITD or derivatives of the human FLT3 AML cell line which acquired the D835Y (activation loop) of F691L (gatekeeper) mutation after selection in escalating doses of the FLT3 Inhibitor AC220. FLT3 inhibitors may also be assessed using cells that are engineered to express mutant FLT3. For engineered cells, murine Ba/F3 cells were transfected with full-length FLT3 ITD/D835Y mutations. The parental BA/F3 cells are dependent upon Interleukin-3 (IL-3) for survival, and introduction of the FLT3 constructs rendered these cells dependent upon FLT3 kinase activity when cultured in the absences of IL-3. Engineered BA/F3 cell growth assays can be performed in either the […] of IL-3, to assess the compound inhibition of FLT3 or to detect the presence of off-target activity, respectively. Inhibitors of FLT3 kinase activity reduce or eliminate the FLT3 oncogenic signaling, resulting in reduced cell proliferation. This inhibition is measured as a function of compound concentration to assess IC50 values.
(§2) Cell lines used in proliferation assays are as follows in Table 2:
(§3) Cells were seeded at 1×10^4 cells per well of a 96 well cell culture plate in 50 μl of cell culture medium. Compounds were dissolved in DMSO, typically at a concentration of 0.5 mM and were serially diluted 1:3 for a total of eight points and added to the cells to final concentrations of […], 0.0041, 0.0014 and 0.00046 μM in 100 μl cell culture medium (final concentration 0.2% DMSO). […] The cells were incubated at 37° C., 5% CO2 for three days. CellTiter-Glo Buffer (Promega Cell Viability Assay catalog #G7573) and substrate were equilibrated to room temperature, and enzyme/substrate Recombinant Firefly Luciferase/Beetle Luciferin was reconstituted. The cell plates were equilibrated to room temperature for 30 minutes, then lysed by addition of an equivalent volume of the Celltiter-Glo Reagent. The plate was mixed for 10 minutes on a plate shaker to lyse the cells. The plates were read on a Tecan M1000 using Luminescence protocol modified to read 0.1 s per well. The luminescence reading assesses the ATP content, which correlates directly with cell number such that the reading as a function of compound concentration was used to determine the IC50 value.

BA/F3-FLT3-ITD + D835Y = molecular target: T1, BA/F3-FLT3-ITD + D835Y (Homo sapiens, UniProt P36888, D835Y, cells depend on it, form not given); assay: Engineered BA/F3 cell growth assay, FLT3 ITD/D835Y; assay type: cell-based, murine; details: 3 d growth
T1 sequence (P36888 with tags, fused parts or gaps INS600HVDFREYEYD/D835Y): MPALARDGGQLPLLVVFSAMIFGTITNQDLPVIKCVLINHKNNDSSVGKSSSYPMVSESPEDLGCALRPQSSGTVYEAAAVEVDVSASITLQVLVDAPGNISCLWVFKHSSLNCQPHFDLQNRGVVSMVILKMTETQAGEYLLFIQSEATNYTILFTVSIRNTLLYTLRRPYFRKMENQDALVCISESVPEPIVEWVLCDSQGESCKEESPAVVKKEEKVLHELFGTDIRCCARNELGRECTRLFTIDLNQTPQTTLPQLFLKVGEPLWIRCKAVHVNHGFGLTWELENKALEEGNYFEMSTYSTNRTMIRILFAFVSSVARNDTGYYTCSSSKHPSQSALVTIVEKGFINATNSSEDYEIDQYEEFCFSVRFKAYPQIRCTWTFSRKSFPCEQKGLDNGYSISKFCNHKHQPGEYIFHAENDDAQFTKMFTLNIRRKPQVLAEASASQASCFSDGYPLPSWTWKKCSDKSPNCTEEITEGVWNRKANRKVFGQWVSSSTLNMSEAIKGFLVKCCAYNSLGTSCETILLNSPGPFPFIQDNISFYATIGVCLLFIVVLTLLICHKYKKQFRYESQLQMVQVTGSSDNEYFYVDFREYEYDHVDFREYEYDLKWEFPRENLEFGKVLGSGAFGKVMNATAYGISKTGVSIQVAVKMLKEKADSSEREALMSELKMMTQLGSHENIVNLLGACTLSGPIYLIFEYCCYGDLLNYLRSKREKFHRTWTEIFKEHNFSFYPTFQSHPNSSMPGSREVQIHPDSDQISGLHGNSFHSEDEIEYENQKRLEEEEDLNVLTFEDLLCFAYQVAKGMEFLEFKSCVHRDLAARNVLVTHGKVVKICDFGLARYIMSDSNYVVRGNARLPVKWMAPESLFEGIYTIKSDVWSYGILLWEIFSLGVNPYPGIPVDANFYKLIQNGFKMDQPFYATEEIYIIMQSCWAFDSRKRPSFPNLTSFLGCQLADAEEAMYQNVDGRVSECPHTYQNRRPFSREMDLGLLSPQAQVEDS
Text: as §1, §2, §3
The BaF3 assays as developed used to generate the data in Tables 7 and 8 are identical and differ only in minor details in regards to vector design, not biological function. Both introduce the FLT3 gene with MV4-11 based ITD duplications and resistance mutations from an exogenous promoter (MSCV and CMV respectively) in the exact same cell line.
As a result of the expressed FLT3 protein, the IL3 factor dependent BaF3 cell clones become IL3-factor independent.
The compounds in Tables 7 and 8 were tested in an identical fashion by incubating such clones in with increasing concentrations. Inhibition of the FLT3 activity by an inhibitor results in factor dependency, which in the absence of IL3 results in cell death in the three day growth assays.

[2] = tested on: MOLM-14 F691L (endogenous FLT3 ITD and transfected FLT3 F691L); assay: MOLM-14 F691L cell proliferation assay (CellTiter-Glo); assay type: cell-based; details: Homo sapiens, MOLM-14, 72 h; 3 d growth, GMean
Text: as §1, §2, §3

COc1ncc(NC(=O)Cc2ccc(-c3cnc4[nH]c(-c5ccc(N6CCOCC6)nc5)cc4c3)cc2F)cc1C(F)(F)F [Compound P-0010, 2-[2-fluoro-4-[2-(6-morpholino-3-pyridyl)-1H-pyrrolo[2,3-b]pyridin-5-yl]phenyl]-N-[6-methoxy-5-(trifluoromethyl)-3-pyridyl]acetamide]
0.0001 to 10 µM: IC50 [1] | GI50 (BA/F3-FLT3-ITD + D835Y) | IC50 [2]

COc1ncc(NC(=O)Cc2ccc(-c3cnc4[nH]c(C#CC5CC5)cc4c3)cc2)cc1C(F)(F)F [Compound P-0008, 2-[4-[2-(2-cyclopropylethynyl)-1H-pyrrolo[2,3-b]pyridin-5-yl]phenyl]-N-[6-methoxy-5-(trifluoromethyl)-3-pyridyl]acetamide]
0.0001 to 10 µM: IC50 [1] | GI50 (BA/F3-FLT3-ITD + D835Y) | IC50 [2]

Cn1cc(Nc2ncc(-c3ccc(CC(=O)NCc4c(F)cccc4Cl)cc3)cn2)cn1 [Compound P-0127, N-[(2-chloro-6-fluoro-phenyl)methyl]-2-[4-[2-[(1-methylpyrazol-4-yl)amino]pyrimidin-5-yl]phenyl]acetamide]
0.0001 to 10 µM: IC50 [1] | GI50 (BA/F3-FLT3-ITD + D835Y) | IC50 [2]

CCc1cncc(NC(=O)Cc2ccc(-c3cnc(Nc4cnn(C(F)F)c4)nc3)cc2)c1 [Compound P-0223, 2-[4-[2-[[1-(difluoromethyl)pyrazol-4-yl]amino]pyrimidin-5-yl]phenyl]-N-(5-ethyl-3-pyridyl)acetamide]
0.0001 to 10 µM: IC50 [1] | GI50 (BA/F3-FLT3-ITD + D835Y) | IC50 [2]

COc1ncc(NC(=O)Cc2ccc(-c3cnc(Nc4cnn(C)c4)nc3)cc2)cc1Br [Compound P-0118, N-(5-bromo-6-methoxy-3-pyridyl)-2-[4-[2-[(1-methylpyrazol-4-yl)amino]pyrimidin-5-yl]phenyl]acetamide]
0.0001 to 10 µM: IC50 [1] | GI50 (BA/F3-FLT3-ITD + D835Y) | IC50 [2]

CC(C)(C#N)c1ccc(NC(=O)Cc2ccc(-c3cnc4[nH]cc(F)c4c3)cc2F)cn1 [Compound P-0042, N-(6-(2-cyanopropan-2-yl)pyridin-3-yl)-2-(2-fluoro-4-(3-fluoro-1H-pyrrolo[2,3-b]pyridin-5-yl)phenyl)acetamide]
0.0001 to 10 µM: IC50 [1] | GI50 (BA/F3-FLT3-ITD + D835Y) | IC50 [2]

Cn1cc(Nc2ncc(-c3ccc(CC(=O)Nc4cnc(Cl)c(Cl)c4)cc3)cn2)cn1 [Compound P-0116, N-(5,6-dichloro-3-pyridyl)-2-[4-[2-[(1-methylpyrazol-4-yl)amino]pyrimidin-5-yl]phenyl]acetamide]
0.0001 to 10 µM: IC50 [1] | GI50 (BA/F3-FLT3-ITD + D835Y) | IC50 [2]

Cc1ncc(NC(=O)Cc2ccc(-c3cnc(Nc4cn[nH]c4)nc3)c(F)c2)cc1C(F)(F)F [Compound P-0225, 2-[3-fluoro-4-[2-(1H-pyrazol-4-ylamino)pyrimidin-5-yl]phenyl]-N-[6-methyl-5-(trifluoromethyl)-3-pyridyl]acetamide]
0.0001 to 10 µM: IC50 [1] | GI50 (BA/F3-FLT3-ITD + D835Y) | IC50 [2]

COc1ccc(-c2cc3cc(-c4ccc(CC(=O)Nc5cnc(OC)c(C(F)(F)F)c5)cc4F)cnc3[nH]2)cn1 [Compound P-0012, 2-[3-fluoro-4-[2-(6-methoxy-3-pyridyl)-1H-pyrrolo[2,3-b]pyridin-5-yl]phenyl]-N-[6-methoxy-5-(trifluoromethyl)-3-pyridyl]acetamide]
0.0001 to 10 µM: IC50 [1] | GI50 (BA/F3-FLT3-ITD + D835Y) | IC50 [2]

Cn1cc(Nc2ncc(-c3ccc(CC(=O)NCc4ccc(C(F)(F)F)cc4)cc3)cn2)cn1 [Compound P-0129, 2-[4-[2-[(1-methylpyrazol-4-yl)amino]pyrimidin-5-yl]phenyl]-N-[[4-(trifluoromethyl)phenyl]methyl]acetamide]
0.0001 to 10 µM: IC50 [1] | GI50 (BA/F3-FLT3-ITD + D835Y) | IC50 [2]

Cc1n[nH]c2ncc(NC(=O)Cc3ccc(-c4cnc(Nc5cnn(C)c5)nc4)cc3)cc12 [Compound P-0120, N-(3-methyl-1H-pyrazolo[3,4-b]pyridin-5-yl)-2-[4-[2-[(1-methylpyrazol-4-yl)amino]pyrimidin-5-yl]phenyl]acetamide]
0.0001 to 10 µM: IC50 [1] | GI50 (BA/F3-FLT3-ITD + D835Y) | IC50 [2]

COc1cc(-c2cc3cc(-c4ccc(CC(=O)Nc5ccnc(C(F)(F)F)c5)nc4)cnc3[nH]2)ccn1 [Compound P-0187, 2-[5-[2-(2-methoxy-4-pyridyl)-1H-pyrrolo[2,3-b]pyridin-5-yl]-2-pyridyl]-N-[2-(trifluoromethyl)-4-pyridyl]acetamide]
0.0001 to 10 µM: IC50 [1] | GI50 (BA/F3-FLT3-ITD + D835Y) | IC50 [2]

Cn1cnc(Nc2ncc(-c3ccc(CC(=O)Nc4cnc(Cl)c(C(F)(F)F)c4)cc3)cn2)c1 [Compound P-0148, N-[6-chloro-5-(trifluoromethyl)-3-pyridyl]-2-[4-[2-[(1-methylimidazol-4-yl)amino]pyrimidin-5-yl]phenyl]acetamide]
0.0001 to 10 µM: IC50 [1] | GI50 (BA/F3-FLT3-ITD + D835Y) | IC50 [2]

COc1ccc(-c2cc3cc(-c4ccc(CC(=O)Nc5cnc(OC)c(C(F)(F)F)c5)c(F)c4)cnc3[nH]2)cn1 [Compound P-0007, 2-[2-fluoro-4-[2-(6-methoxy-3-pyridyl)-1H-pyrrolo[2,3-b]pyridin-5-yl]phenyl]-N-[6-methoxy-5-(trifluoromethyl)-3-pyridyl]acetamide]
0.0001 to 10 µM: IC50 [1] | GI50 (BA/F3-FLT3-ITD + D835Y) | IC50 [2]

Cn1cc(Nc2ncc(-c3ccc(CC(=O)NCc4ccc(F)cc4Cl)cc3)cn2)cn1 [Compound P-0125, N-[(2-chloro-4-fluoro-phenyl)methyl]-2-[4-[2-[(1-methylpyrazol-4-yl)amino]pyrimidin-5-yl]phenyl]acetamide]
0.0001 to 10 µM: IC50 [1] | GI50 (BA/F3-FLT3-ITD + D835Y) | IC50 [2]

COc1cc(-c2cc3cc(-c4cc(F)c(CC(=O)Nc5cc(C(F)(F)F)ccn5)cc4F)cnc3[nH]2)ccn1 [Compound P-0189, 2-[2,5-difluoro-4-[2-(2-methoxy-4-pyridyl)-1H-pyrrolo[2,3-b]pyridin-5-yl]phenyl]-N-[4-(trifluoromethyl)-2-pyridyl]acetamide]
0.0001 to 10 µM: IC50 [1] | GI50 (BA/F3-FLT3-ITD + D835Y) | IC50 [2]

COc1ncc(NC(=O)Cc2ccc(-c3cnc(Nc4cn(C(F)F)nc4C)nc3)cc2)cc1C(F)(F)F [Compound P-0054, 2-[4-[2-[[1-(difluoromethyl)-3-methyl-pyrazol-4-yl]amino]pyrimidin-5-yl]phenyl]-N-[6-methoxy-5-(trifluoromethyl)-3-pyridyl]acetamide]
0.0001 to 10 µM: IC50 [1] | GI50 (BA/F3-FLT3-ITD + D835Y) | IC50 [2]
